Results on 19 molecules are retold here after patent publication US11008572B2, “Methods and compositions for modulating splicing” (SKYHAWK THERAPEUTICS, INC., priority 2017, dated 2021).

Assay [1] relates to A-673 cells. The assay is described as follows: Cell viability, crystal violet staining. The class given is cell-based. Particulars: Homo sapiens, A673, cell viability, read-out: A-673 IC50 (nM) Cell viability. In a few lines:
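Readout is absorbance at 570 nm of crystal violet, taken up in 0.1 M sodium citrate in 50% ethanol after staining with 0.5% dye in 25% methanol. Plates held 5×10^3 cells per well, and compounds were added one day after seeding for 72 hours. Data are relative to vehicle, mean±SE.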

Assay [2] concerns FOXM1^A2 mRNA and FOXM1^BC mRNA. As to the kind of experiment: Splicing assay (FOXM1), qPCR of isoform mRNAs. The class given is cell-based. The settings on record: for IC50: FoxM1 BC mRNA decrease (exon included), read-out: Splice IC50 (nM) FoxM1 BC mRNA decrease (exon included); for EC50: read-out: Splice EC50 (nM) FoxM1 A mRNA increase (exon excluded). The protocol: Various cells lines were treated with the SMSMs described herein. RNA was then isolated, cDNA synthesized, qPCR performed and the levels of various mRNA targets of the SMSMs were determined. In some instances, RNA was isolated, cDNA synthesized, qPCR performed and the levels of mRNA isoforms in the various cell samples were determined.
On the day of the experiment, a 96-well plate was seeded with the cell lines of interest. The cells were diluted with full growth media to a concentration of 2.0×10^5 cells/mL and 100 μL of cells were added to each well (20,000 cells per well). The cells were treated with a compound immediately after plating.
The compounds were then added to the cell plate using the HP compound dispenser. In the initial experiment, a top concentration of 10 μM and an 8 point 4-fold dilution scheme was used. The stock compounds were made at a concentration of 5 mM, and the DMSO concentration was set to 0.2%. DMSO was used to normalize all the compound-containing wells and the untreated cells.
The treated cells were incubated at 37° C. in a 5% CO2 incubator for the desired amount of time. Plates were placed in a plastic bag with a wet paper towel to prevent evaporation.
RNA was isolated using the Cells to CT kit (ThermoFisher, AM1728). The cells were washed once with 100 μL cold PBS. 50 μL of lysis buffer was added to each well/tube (49.5 μL lysis buffer+0.5 μL DNase I per well/tube). The lysis reaction was mixed and incubated at room temperature for 5 minutes. 5 μL of stop solution was added directly into each cell lysis reaction and mixed by pipetting up and down 5 times. The plates/tubes were incubated at room temperature for 2 minutes then placed on ice if the cDNA synthesis was to be performed immediately. Otherwise, the plates/tubes were stored at −80° C. cDNA synthesis reactions were then performed. Reverse Transcription (RT) Master mix was prepared according to the table below.
40 μL RT master mix was added to PCR tubes or plate wells. 10 μL of RNA was added to each tube/well. The RT thermal cycler program was then run and tubes or plate wells were incubated at 37° C. for 1 hour, then at 95° C. for 5 minutes to deactivate the enzyme.
The qPCR was performed using a QuantStudio 6 instrument (ThermoFisher) and the following cycling conditions and according to the tables below. All samples and standards were analyzed in triplicate. Cycle 1: 2 minutes at 50° C. Cycle 2: 10 minutes at 95° C. Cycle 3 (repeat 40 times): 15 seconds at 95° C., 1 minute at 60° C.
The determined isoform 2and isoform 1quantities were then be used to determine the isoform 2: […] at the various compound concentrations. The PPIA quantities were used in the normalization to account of cell proliferation effects of the compounds.
The dilution necessary to make the top standard is calculated. A top concentration 200,000,000 copies/μL of the stock plasmid was prepared in TE buffer. A series of 10-fold dilutions, also in TE, were then made. A total of 5 μL of each standard was used in a qPCR well to generate samples containing 109 copies, […], 10^7copies, 10^6 copies, 10^5 copies, 10^4 copies, 10^3 copies, 10^2 copies, 10^1copies, and 0 copies.
An assay to measure the FOXM1^A2 mRNA and FOXM1^BC mRNA, or MADD^WT (isoform 4) mRNA and MADD^Ex16 (isoform 3) mRNA, or MAPTau^4R mRNA and MAPTau^3R mRNA simultaneously in cell wells was performed. The RNA values were measured relative to DMSO control and also included a housekeeping gene, PPIA to ensure data was consistent. The mRNA values were measured after 24 hours of incubation with the SMSM compounds.
A general note: Real-time PCR tracks product formation cycle by cycle.

In the case of `COCCN(c1ccc(-c2ccc(-c3cn[nH]c3)cc2O)nn1)C1CC(C)(C)NC(C)(C)C1` [compound 133, 2-(6-((2-methoxyethyl)(2,2,6,6-tetramethylpiperidin-4-yl)amino)pyridazin-3-yl)-5-(1H-pyrazol-4-yl)phenol], the IC50 (usually the concentration at which inhibition is half-maximal) in assay [1] is above 1000 nM. In assay [2], the IC50 is above 1000 nM and the EC50 (as a rule, the concentration giving half of the maximal effect) lay in the range of 501 to 1000 nM.

Turning to `CN(c1cnc(-c2ccc(-c3cn[nH]c3)cc2O)nc1)C1CC(C)(C)NC(C)(C)C1` [compound 134, 2-(5-(methyl(2,2,6,6-tetramethylpiperidin-4-yl)amino)pyrimidin-2-yl)-5-(1H-pyrazol-4-yl)phenol], the IC50 in assay [1] was above 1000 nM. In addition, in assay [2], the IC50 was above 1000 nM and the EC50 is above 1000 nM.

Take `CN(c1ccc(-c2ccc(-c3cn[nH]c3)cc2O)nc1)C1CC(C)(C)NC(C)(C)C1` [compound 135, 2-(5-(methyl(2,2,6,6-tetramethylpiperidin-4-yl)amino)pyridin-2-yl)-5-(1H-pyrazol-4-yl)phenol]: the IC50 in assay [1] and in assay [2] was above 1000 nM each time. The EC50 in assay [2] is above 1000 nM.

Consider `CN(c1cnc(-c2ccc(-c3cn[nH]c3)cc2O)cn1)C1CC(C)(C)NC(C)(C)C1` [compound 136, 2-(5-(methyl(2,2,6,6-tetramethylpiperidin-4-yl)amino)pyrazin-2-yl)-5-(1H-pyrazol-4-yl)phenol], for which the IC50 in assay [1] is 501 to 1000 nM. In assay [2], the IC50 lay within 251 to 500 nM and the EC50 fell in the range of 101 to 250 nM.

Turning to `CN(c1ccc(-c2ccc(-c3cn[nH]c3)cc2O)nn1)[C@H]1[C@@H]2CNC[C@@H]21` [compound 137, 2-(6-(((1R,5S,6s)-3-azabicyclo[3.1.0]hexan-6-yl)(methyl)amino)pyridazin-3-yl)-5-(1H-pyrazol-4-yl)phenol], the IC50 in assay [1] is above 1000 nM. In assay [2], the IC50 is above 1000 nM and the EC50 is above 1000 nM.

On to `CN(c1ccc(-c2ccc(-c3cn[nH]c3)cc2O)nn1)[C@H]1C[C@H]2CC[C@@H](C1)N2` [compound 139, 2-(6-(((1R,3r,5S)-8-azabicyclo[3.2.1]octan-3-yl)(methyl)amino)pyridazin-3-yl)-5-(1H-pyrazol-4-yl)phenol], for which, in assay [1], the IC50 was above 1000 nM. For the same molecule, in assay [2], the IC50 was above 1000 nM and the EC50 is above 1000 nM.

Consider `Oc1cc(-c2cn[nH]c2)ccc1-c1ccc(O[C@@H]2C[C@H]3CC[C@@H](C2)N3)nn1` [compound 140, 2-(6-(((1R,3s,5S)-8-azabicyclo[3.2.1]octan-3-yl)oxy)pyridazin-3-yl)-5-(1H-pyrazol-4-yl)phenol], for which the IC50 in assay [1] is 101 to 250 nM; in assay [2], 10 to 100 nM. The EC50 in assay [2] was in the range of 10 to 100 nM.

Consider `Oc1cc(-c2cn[nH]c2)ccc1-c1ccc(O[C@H]2C[C@H]3CC[C@@H](C2)N3)nn1` [compound 141, 2-(6-(((1R,3r,5S)-8-azabicyclo[3.2.1]octan-3-yl)oxy)pyridazin-3-yl)-5-(1H-pyrazol-4-yl)phenol], for which the IC50 in assay [1] is above 1000 nM. For the same molecule, in assay [2], the IC50 is above 1000 nM and the EC50 is above 1000 nM.

For the molecule `CN(c1ccc(-c2ccc(-c3cn[nH]c3)cc2O)nn1)[C@H]1C[C@H]2CNC[C@H]2C1` [compound 142, 2-(6-(methyl((3R,5r,6S)-octahydrocyclopenta[c]pyrrol-5-yl)amino)pyridazin-3-yl)-5-(1H-pyrazol-4-yl)phenol], the IC50 in assay [1] was above 1000 nM. Moreover, in assay [2], the IC50 fell in the range of 501 to 1000 nM and the EC50 lay within 251 to 500 nM.

Turning to `CN(c1ccc(-c2ccc(-c3cn[nH]c3)cc2O)nn1)[C@@H]1C[C@H]2CNC[C@H]2C1` [compound 143, 2-(6-(methyl((3R,5s,6S)-octahydrocyclopenta[c]pyrrol-5-yl)amino)pyridazin-3-yl)-5-(1H-pyrazol-4-yl)phenol], the IC50 in assay [1] is above 1000 nM; in assay [2], 501 to 1000 nM. Further, in assay [2], the EC50 was in the range of 251 to 500 nM.

On to `CN(c1ccc(-c2ccc(-c3cn[nH]c3)cc2O)nn1)[C@@H]1[C@@H]2CC[C@H]1CNC2` [compound 144, 2-(6-(((1R,5S,8s)-3-azabicyclo[3.2.1]octan-8-yl)(methyl)amino)pyridazin-3-yl)-5-(1H-pyrazol-4-yl)phenol], for which, in assay [1], the IC50 was in the range of 501 to 1000 nM. Also, in assay [2], the IC50 was above 1000 nM and the EC50 was above 1000 nM.

Regarding `CN(c1ccc(-c2ccc(-c3cn[nH]c3)cc2O)nn1)[C@H]1[C@@H]2CC[C@H]1CNC2` [compound 145, 2-(6-(((1R,5S,8r)-3-azabicyclo[3.2.1]octan-8-yl)(methyl)amino)pyridazin-3-yl)-5-(1H-pyrazol-4-yl)phenol], the IC50 in assay [1] was above 1000 nM. In assay [2], the IC50 is above 1000 nM and the concentration giving a half-maximal response (EC50) was above 1000 nM.

For `CN(c1ccc(-c2ccc(-c3cn[nH]c3)cc2O)nn1)[C@H]1C[C@H]2C[C@@H]1CN2` [compound 146, 2-(6-(((1R,4R,5S)-2-azabicyclo[2.2.1]heptan-5-yl)(methyl)amino)pyridazin-3-yl)-5-(1H-pyrazol-4-yl)phenol], the IC50 in assay [1] was above 1000 nM. Also, in assay [2], the IC50 lay in the range of 251 to 500 nM and the EC50 was 101 to 250 nM.

As for `CN(c1ccc(-c2ccc(-c3cn[nH]c3)cc2O)nn1)[C@@H]1C[C@@H]2C[C@H]1CN2` [compound 147, 2-(6-(((1S,4S,5R)-2-azabicyclo[2.2.1]heptan-5-yl)(methyl)amino)pyridazin-3-yl)-5-(1H-pyrazol-4-yl)phenol], the IC50 in assay [1] was above 1000 nM. For the same molecule, in assay [2], the IC50 was in the range of 251 to 500 nM and the EC50 lay within 101 to 250 nM.

As to `CN(c1ccc(-c2ccc(-c3cn[nH]c3)cc2O)nn1)[C@@H]1C[C@H]2C[C@@H]1CN2` [compound 148, 2-(6-(((1R,4R,5R)-2-azabicyclo[2.2.1]heptan-5-yl)(methyl)amino)pyridazin-3-yl)-5-(1H-pyrazol-4-yl)phenol], the IC50 in assay [1] is above 1000 nM. For the same molecule, in assay [2], the IC50 was above 1000 nM and the EC50 is above 1000 nM.

As for `CN(c1ccc(-c2ccc(-c3cn[nH]c3)cc2O)nn1)[C@H]1C[C@@H]2C[C@H]1CN2` [compound 149, 2-(6-(((1S,4S,5S)-2-azabicyclo[2.2.1]heptan-5-yl)(methyl)amino)pyridazin-3-yl)-5-(1H-pyrazol-4-yl)phenol], in assay [1], the IC50 is above 1000 nM. Further, in assay [2], the IC50 is above 1000 nM and the EC50 is 251 to 500 nM.

For the molecule `C[C@]12CC[C@](C)(C[C@H](Oc3ccc(-c4ccc(-c5cn[nH]c5)cc4O)nn3)C1)N2` [compound 153, 2-(6-(((1R,3r,5S)-1,5-dimethyl-8-azabicyclo[3.2.1]octan-3-yl)oxy)pyridazin-3-yl)-5-(1H-pyrazol-4-yl)phenol], the IC50 in assay [1] and in assay [2] was above 1000 nM each time. Moreover, the EC50 in assay [2] is above 1000 nM.

Consider `CN(c1ccc(-c2ccc(-c3cn[nH]c3)cc2O)nn1)[C@H]1C[C@H]2COC[C@@H](C1)N2` [compound 155, 2-(6-(((1R,5S,7s)-3-oxa-9-azabicyclo[3.3.1]nonan-7-yl)(methyl)amino)pyridazin-3-yl)-5-(1H-pyrazol-4-yl)phenol], for which the IC50 in assay [1] was above 1000 nM. Moreover, in assay [2], the IC50 was above 1000 nM and the EC50 was above 1000 nM.

With `Oc1cc(-c2cn[nH]c2)ccc1-c1ccc(O[C@H]2C[C@H]3COC[C@@H](C2)N3)nn1` [compound 158, 2-(6-(((1R,5S,7s)-3-oxa-9-azabicyclo[3.3.1]nonan-7-yl)oxy)pyridazin-3-yl)-5-(1H-pyrazol-4-yl)phenol], the IC50 in assay [1] and in assay [2] was above 1000 nM in each case. Besides, the EC50 in assay [2] is above 1000 nM.
